From PubChem BioAssay (NCI)
Values joined by “and” are separate entries in the source; they are usually repeats but may differ in a detail not shown here. Equal values may be shown once.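 These data come from cells grown in 96-well plates and exposed to compound for 48 hours at five concentrations. Abbreviation: GI50, concentration required for 50% inhibition of growth. Definition used: TGI = concentration required for complete inhibition of growth.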

Columns and labels:
Test in all cases: inhibition of tumour cell growth, NCI panel, 48 h
SK-MEL-2 melanoma = system: SK-MEL-2 melanoma
U251 CNS = system: U251 CNS
SNB-75 CNS = system: SNB-75 CNS
RPMI-8226 leukemia = system: RPMI-8226 leukemia
HCT-116 colon = system: HCT-116 colon
K-562 leukemia = system: K-562 leukemia
OVCAR-4 ovarian = system: OVCAR-4 ovarian
SK-MEL-28 melanoma = system: SK-MEL-28 melanoma
NCI-H460 lung = system: NCI-H460 lung
LOX IMVI melanoma = system: LOX IMVI melanoma

SMILES	GI50 (SK-MEL-2 melanoma)	TGI (SK-MEL-2 melanoma)	GI50 (U251 CNS)	TGI (U251 CNS)	GI50 (SNB-75 CNS)	TGI (SNB-75 CNS)	GI50 (RPMI-8226 leukemia) [µM]	TGI (RPMI-8226 leukemia) [µM]	GI50 (HCT-116 colon)	TGI (HCT-116 colon)	GI50 (K-562 leukemia)	TGI (K-562 leukemia) [µM]	GI50 (OVCAR-4 ovarian)	TGI (OVCAR-4 ovarian)	GI50 (SK-MEL-28 melanoma)	TGI (SK-MEL-28 melanoma)	GI50 (NCI-H460 lung)	TGI (NCI-H460 lung)	GI50 (LOX IMVI melanoma)	TGI (LOX IMVI melanoma)
COC(=O)[C@H](Cc1ccccc1)NC(=O)c1csc([C@@H](C[C@H](C(C)C)N(C)C(=O)[C@@H](NC(=O)[C@H]2CCCN2C)C2CC2)OC(C)=O)n1	0.728 µM	> 33.3 µM	0.521 µM	> 33.3 µM	0.131 µM	> 33.3 µM	0.224	> 33.3	0.138 µM	21.4 µM	0.113 µM	> 33.3	3.98 µM	> 33.3 µM	2.48 µM	> 33.3 µM	0.397 µM	> 33.3 µM	0.301 µM	> 33.3 µM
Fc1c[c-]c(-c2ccccn2)c(F)c1.[CH3-].[Pt+2].c1ccc(P(C[PH+](c2ccccc2)c2ccccc2)c2ccccc2)cc1	0.695 µM	1.89 µM	0.347 µM	1.06 µM	0.967 µM	4.14 µM	0.262	1.87	0.494 µM	1.29 µM	0.365 µM	6.95	0.61 µM	3.71 µM	0.512 µM	1.52 µM	0.591 µM	1.54 µM	0.539 µM	1.28 µM
CCc1cccc(CC)c1/C=C/c1cncc(C(=O)NC)c1	10.9 µM	> 22.6 µM	10.6 µM	> 25 µM	7.08 µM	> 25 µM	9.46	> 25	9.46 µM	> 25 µM	5.62 µM	> 25	> 21.4 µM	> 25 µM	13.4 µM	> 25 µM	9.97 µM	> 25 µM	11.5 µM	> 25 µM
O=C(O)[C@@H]1CCCC[C@@H]1C(=O)N(C1CCCCC1)C1CCCCC1	–	> 100 µM	–	> 100 µM	–	> 100 µM	–	> 100	–	> 100 µM	–	> 100	–	> 100 µM	–	> 100 µM	–	> 100 µM	–	> 100 µM
Nc1ncnc2c1c(-c1ccc(Oc3ccccc3)cc1)nn2C[C@@H]1SSC[C@@H]1O	0.212 µM	0.502 µM	0.853 µM	8.71 µM	1.78 µM	7.56 µM	2.86	14.6	0.101 µM	1.64 µM	0.295 µM	3.21	1.33 µM	14 µM	0.0824 µM	0.484 µM	0.0286 µM	0.0807 µM	0.169 µM	1.11 µM
O=C(Nc1ccccc1O)c1ccc(CNC(=O)c2ccsc2Nc2ccnc(C(F)(F)F)c2)cc1	2.1 µM	6.26 µM	1.65 µM	5.07 µM	2.57 µM	43.5 µM	1.14	6.72	1.34 µM	3.36 µM	1.62 µM	> 100	1.74 µM	> 100 µM	2.15 µM	6.79 µM	2.38 µM	11.4 µM	1.63 µM	3.99 µM
COc1cc2cc(Oc3ccc(NC(=O)c4cccc5c4OCCO5)cc3)c(C)nc2cc1OC	32.9 µM	> 100 µM	5.03 µM	> 100 µM	4.06 µM	53.1 µM	2.98	> 100	3.42 µM	> 100 µM	4.81 µM	> 100	3.32 µM	35 µM	19.2 µM	> 100 µM	8.36 µM	> 100 µM	9.28 µM	> 100 µM
COc1ccc(-c2cc(/C=C/C(=O)c3cc(OC)c(OC)c(OC)c3)[nH]n2)cc1OC	2.69 µM	7.7 µM	1.24 µM	2.53 µM	1.31 µM	3.77 µM	0.298	1.66	0.425 µM	1.79 µM	0.731 µM	9.71	1.62 µM	7.17 µM	1.92 µM	4.41 µM	1.04 µM	3.6 µM	1.46 µM	2.88 µM
CN(C)C/C=C/C(=O)Nc1ccc(C(=O)N2CCC[C@@H](Nc3ncc(Cl)c(-c4c[nH]c5ccccc45)n3)C2)cc1	0.115 µM	0.392 µM	0.306 µM	10 µM	0.0978 µM	0.444 µM	0.422	3.83	0.154 µM	10.6 µM	0.0863 µM	> 100	0.0664 µM	9.74 µM	0.121 µM	0.942 µM	0.498 µM	5.62 µM	0.0558 µM	1.28 µM
O=C(Cc1ccc(/C=C/C(=O)c2ncc[nH]2)cc1)Nc1ccc(C(F)(F)F)cc1	7.09 µM	16.7 µM	1.22 µM	4.11 µM	3.97 µM	9.12 µM	0.78	1.83	0.694 µM	1.74 µM	1.24 µM	> 33.3	5.12 µM	22.1 µM	5.32 µM	11.1 µM	3.6 µM	10.7 µM	0.469 µM	1.02 µM
C/C(=N/O)c1ccc2c(c1)C(=NO)c1cc(/C(C)=N/O)ccc1-2	–	40.1 µM	–	28.6 µM	–	36.3 µM	–	> 100	–	64.6 µM	–	> 100	–	30.5 µM	–	31.7 µM	–	31.8 µM	–	26.7 µM
NC(=O)C(=O)n1ncc(Cl)c(Cl)c1=O	–	30.8 µM	–	> 60.3 µM	–	> 69.7 µM	–	51.9	–	55.3 µM	–	47	–	46.9 µM	–	30.5 µM	–	> 100 µM	–	56.6 µM
CC(=O)OCCC(O[Si](c1ccccc1)(c1ccccc1)C(C)(C)C)C(C)(C)O (configuration not stated)	–	> 100 µM	–	> 100 µM	–	> 100 µM	–	63	–	31.2 µM	–	> 100	–	> 100 µM	–	> 100 µM	–	> 100 µM	–	57.8 µM
C[C@@H]1C/C=C\C(=O)O[C@H](/C=C/C#C/C=C/C(C)(C)[C@@H](O)c2cccc(O)c2Br)[C@@H](C)/C=C/[C@H](C)C[C@H](OC(N)=O)C1	0.0346 µM	1.01 µM	0.0706 µM	18.3 µM	0.255 µM	21.2 µM	0.0411	6.45	0.0362 µM	12.5 µM	0.0332 µM	> 32.7	6.45 µM	22 µM	0.278 µM	12.9 µM	0.0234 µM	11.2 µM	0.0167 µM	0.0447 µM
CN(C)CCCN1c2ccccc2Sc2ccc(Cl)cc21	3.81 µM and 5.52 µM	13.4 µM and 19.5 µM	2.62 µM and 3.46 µM	7.9 µM and 14.4 µM	4.63 µM and 6.09 µM	19.7 µM and 23 µM	13.6	32.6	3.28 µM and 3.6 µM	10.9 µM and 12.8 µM	3.16 µM	11.3	7.84 µM and 9.23 µM	20.7 µM and 22.5 µM	2.03 µM and 3.65 µM	4.69 µM and 14.4 µM	4.72 µM and 10.8 µM	17.1 µM and 23.8 µM	10.8 µM and 10.3 µM	23.4 µM and 24.5 µM
c1ccc(CC(NCCNC(Cc2ccccc2)c2ccccc2)c2ccccc2)cc1 (configuration not stated)	1.16 µM	2.57 µM	0.406 µM	1.43 µM	1.43 µM	4.56 µM	0.243	0.524	0.2 µM	0.486 µM	0.307 µM	0.89	0.415 µM	2.02 µM	1.22 µM	2.8 µM	0.294 µM	0.719 µM	0.185 µM	0.375 µM
CC(C)(C)[Si](C)(C)OCC1OC(n2cnc3c(N)ncnc32)C(O)C1O (configuration not stated)	–	> 100 µM	–	> 100 µM	–	> 100 µM	–	> 100	–	> 100 µM	–	> 100	–	> 100 µM	–	> 100 µM	–	> 100 µM	–	> 100 µM
COc1ccc2[nH]c3c(=O)[nH]ncc3c2c1	–	> 100 µM	–	> 100 µM	–	57.4 µM	–	> 100	–	> 100 µM	–	> 100	–	> 100 µM	–	> 100 µM	–	> 100 µM	–	> 100 µM
CN(C)C(=O)SC1=C(c2c(Cl)cccc2Cl)C(=O)c2ccccc21	7.12 µM	13.7 µM	8.33 µM	23 µM	7.94 µM	23.9 µM	2.2	5.84	1.75 µM	3.28 µM	2.98 µM	14.8	4.24 µM	10.8 µM	3.16 µM	8.89 µM	17.4 µM	37.2 µM	1.74 µM	3.75 µM
COc1ccc2[nH]c(-c3ccccc3)cc2c1	> 100 µM	> 100 µM	> 100 µM	> 100 µM	> 100 µM	> 100 µM	43.2	> 100	> 100 µM	> 100 µM	86.8 µM	> 100	92.3 µM	> 100 µM	> 100 µM	> 100 µM	> 100 µM	> 100 µM	> 100 µM	> 100 µM
CC[C@H](C)[C@H](NC(=O)[C@H]1CCCCN1C)C(=O)N(C)[C@H](C[C@@H](OC(C)=O)c1nc(C(=O)N[C@@H](Cc2ccccc2)C[C@H](C)C(=O)OC)cs1)C(C)C	0.000463 µM and < 0.0025 µM	< 0.0025 µM	0.000376 µM and 0.0025 µM	> 25 µM	0.000335 µM and 0.0025 µM	–	–	8.97	0.000357 µM	–	0.000278 µM and 0.0025 µM	> 25	0.00479 µM and 0.0025 µM	> 25 µM	> 25 µM	> 25 µM	0.000295 µM and 0.0025 µM	> 25 µM	0.000536 µM and 0.0025 µM	> 25 µM
Cc1n(Cc2ccc3ccccc3c2)c(Cl)c(Cl)[n+]1Cc1ccc2ccccc2c1	2.07 µM	4.13 µM	1.79 µM	3.6 µM	1.16 µM	2.66 µM	1.05	3.12	1.62 µM	3.28 µM	1.9 µM	7.3	1.39 µM	2.76 µM	1.68 µM	3.18 µM	1.69 µM	3.2 µM	1.6 µM	2.95 µM
CC[C@@]1(O)C(=O)OCc2c1cc1n(c2=O)Cc2cc3c(N)cccc3nc2-1	–	1.99 µM	0.00889 µM	1.55 µM	–	0.0711 µM and 0.231 µM	–	4.72	0.00979 µM and 0.0559 µM	0.737 µM	0.0277 µM	> 100	–	3.62 µM	–	16.3 µM	0.00439 µM	0.462 µM	0.00462 µM	0.255 µM
